In patent US12582672B2, “Vanadium compositions and methods for treatment of cancer” (THE BROAD INSTITUTE, INC., priority 2018, dated 2026):
Entries after “also recorded” stand apart in the source; their conditions may differ.

Legend:
[1] = tested on: 578 cancer cell lines; assay: PRISM multiplexed cellular viability assay; type: cell-based; settings: for prediction of cell line sensitivity by SLC26A2 expression: more than 4,000 compounds profiled against 578 cancer cell lines
Experimental: Parental cell lines were obtained from the Cancer Cell Line Encyclopedia (CCLE) project (1). PRISM cell line barcoding, pooling, and screening was performed as previously described with several improvements to the original method (2). First, the lentiviral vector was modified to encode the unique barcode identifier at the end of the puromycin resistance gene. This enables barcodes to be detected using a variant of the mRNA capture and Luminex detection method developed for the L1000 gene expression assay (3). Second, a set of ten inert barcodes were spiked-in to each well of each plate after cell lysis to control for variation in PCR amplification as detailed below.
Luminex technology produced .Ixb files containing data for each Luminex bead observed during detection. These .Ixb files were processed to compute Median Fluorescence Intensity (MFI) values, calculated as the median of the values obtained for all beads corresponding to a single PRISM barcode.
MFI values were log-transformed (logMFI) and used to perform basic quality control. To detect probable screening artifacts, logMFI values were centered to the median logMFI for each cell line on each plate in order to put the measurements from each cell line on the same scale. For each well on each plate, the median of these centered values was then standardized according to the global median and global MAD across all plate wells in the same position. Data from wells with a standardized score of greater than 5 or less than −5 were excluded from all further processing steps.
For each cell line on each plate, the distribution of MFI values observed for the DMSO-treated negative controls was compared to that of the positive controls using a robust form of the Strictly Standardized Mean Difference (SSMD*)′. Specifically, SSMD* was calculated as: […]
Data corresponding to SSMD values less than 2 were removed before calculating cell viability.
The data in the instant disclosure were produced according to two different screening protocols. In the PR500 protocol, ten inert barcodes were spiked-in to each well of each plate after cell lysis. For data produced using the PR500 protocol, normalized MFI (nMFI) values were computed by taking the ratio of each MFI value against the median of the inert barcodes within each well. For data produced before the PR500 protocol was introduced, nMFI values were set equal to MFI values.
Cell viability was calculated as the ratio of nMFI to the median of the nMFI from the DMSO-treated negative controls for each cell line on each plate. Batch effects produced from variable detection and assay conditions were then removed using ComBat (4). The final viability values were calculated as the median of the batch-corrected cell viabilities from biological replicates for each cell line, compound and dose.
Measures of dose response were obtained by fitting 3-parameter logistic curves to viability values for each compound and cell line using the R package ‘drc’. Following the practice of Smirnov and Safikhani (5), viability was truncated at 1.0 and fit as a function of drug concentration according to:
[formula] where all concentrations are in the natural logarithm scale. IC50 values were defined as the concentration c at which V(c)=0.5, given by the formula:
[formula] The Area Under the dose response Curve (AUC) was calculated using the normalized integral: […]
The formulation above puts AUC values on a scale between 0 and 1, where lower AUC values indicate increased sensitivity to the treatment.

[2] = diabetic rats; cited from earlier work
[3] = tested on: SLC26A2 knockouts in A375, OVISE, and A2058 cell lines; assay: CellTiter-Glo cellular viability assay in CRISPR-Cas9 SLC26A2 knockout cell lines; type: cell-based; settings: FIGS. 7A-7C
Excerpt: XP003, XP023, psPAX, and pMD2.G vectors were acquired from the Broad Genetic Perturbation Platform (GPP). Oligos for sgRNAs designs were generated using Broad GPP sgRNA guide generator resource (on the World Wide Web at (www)broad institute.org/gpp/db/analvsis-tools/sgrna-design) and the respective oligos were synthesized by Integrated DNA Technologies. In order to clone the sgRNAs into either the XPR003 guide only or XPRO23 all-in-one crispr lentiviral expression systems the protocol available on the Broad GPP website (www.broadinstitute.org/gpp/db/resources/protocols) was followed.
In order to generate viral vectors, HEK293T cells were seeded in 6 well plates at a density of 1.5E6 cells per well. Cells were then transfected with a mixture of TranslT@-LT1 Transfection Reagent (MirusBio #M1R2304), psPAX2, pMD2.G, lentiviral plasmid diluted in Opti-MEM™ (Thermo #31985062). The following day media was changed DMEM (Thermo #10566016) with 30% FBS (Sigma 18A079). 72 hrs after transfection, virus containing media was collected and run through a 0.2 uM filter to remove cellular debris. Virus was aliquoted and stored short term at −20 C until infection day. […]
Cell viability was assayed using a modified manufacturer's protocol for CellTiter-Glo® (Promega #G7573). […] Luminescence was measured with an integration time of 0.1 s using Envision Microplates Reader (PERKIN ELMER #2105-0010). […]

[4] = biological target: T1, protein tyrosine phosphatase-1B (PTP-1B) (Homo sapiens, UniProt P18031); settings: cited from earlier work
T1 sequence (P18031 1-435): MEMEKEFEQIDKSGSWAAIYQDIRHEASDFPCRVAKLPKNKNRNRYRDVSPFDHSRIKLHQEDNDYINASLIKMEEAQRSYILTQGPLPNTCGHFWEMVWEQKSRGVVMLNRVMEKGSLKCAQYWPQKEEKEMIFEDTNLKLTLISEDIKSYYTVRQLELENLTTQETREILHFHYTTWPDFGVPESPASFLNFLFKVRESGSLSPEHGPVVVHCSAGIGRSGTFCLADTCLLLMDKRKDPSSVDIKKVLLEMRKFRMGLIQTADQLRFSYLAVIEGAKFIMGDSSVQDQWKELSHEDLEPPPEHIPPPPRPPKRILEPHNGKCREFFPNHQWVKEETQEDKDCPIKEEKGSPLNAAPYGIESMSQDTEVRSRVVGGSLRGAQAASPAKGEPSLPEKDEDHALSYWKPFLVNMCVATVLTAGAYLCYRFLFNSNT

| SMILES | prediction of cell line sensitivity by SLC26A2 expression [1] | glycaemia and insulin levels [2] | effect of SLC26A2 knockout on BMOV sensitivity (percent viability curves) [3] | phosphatase inhibition [4] | selective killing of cancer cell lines ([1]; SLC26A2-high versus lower SLC26A2 expression cell lines) |
| --- | --- | --- | --- | --- | --- |
| CCc1occc(=O)c1[O][V](=[O])[O]c1c(CC)occc1=O [BEOV, bis(ethylmaltolato)oxovanadium(IV)] | high SLC26A2 transcriptional target gene expression predicted cell line sensitivity | – | – | – | – |
| CC(C)c1occc(=O)c1[O][V](=[O])[O]c1c(C(C)C)occc1=O [BIOV, bis(isopropylmaltolato)oxovanadium(IV)] | high SLC26A2 transcriptional target gene expression predicted cell line sensitivity | – | – | – | – |
| Cc1occc(=O)c1[O][V](=[O])[O]c1c(C)occc1=O [BMOV, bis(maltolato)oxovanadium(IV)] | high SLC26A2 transcriptional target gene expression predicted cell line sensitivity | restore normoglycaemia without rising insulin levels | SLC26A2 knockouts rescue BMOV sensitivity | potent phosphatase inhibitor | selective killing of SLC26A2-high cancer cell lines; also recorded: selectively kills ovarian cancer cells, bone cancer cells, and melanoma cells |
| CCCCc1occc(=O)c1[O][V](=[O])[O]c1c(CCCC)occc1=O [BnBOV, bis(n-butylmaltolato)oxovanadium(IV)] | high SLC26A2 transcriptional target gene expression predicted cell line sensitivity | – | – | – | – |
